Laboratory results taken from ChEMBL document CHEMBL1201862, “PubChem BioAssay data set” (2004).
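Each compound was tested at five concentrations against cells in 96-well plates for 48 hours. GI50 marks 50% less growth.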 Calls of active or inactive are those of the source. No stated cut-off is given here; in the data, active = GI50 up to about 1.1 µM and inactive = higher.

Legend:
Test in all cases: NCI tumour cell line growth inhibition, 48 h
DMS-114 = tested on: DMS-114
HOP-18 = tested on: HOP-18
RXF 631 = tested on: RXF 631
M19-MEL = tested on: M19-MEL
XF498 = tested on: XF498
DLD-1 = tested on: DLD-1
KM-20L2 = tested on: KM-20L2
LXFL 529 = tested on: LXFL 529
SNB-78 = tested on: SNB-78

Measured: GI50

Cc1nc2sccn2c1C(=O)NN
inactive: DMS-114 > 100 µM | HOP-18 21.6 µM | RXF 631 > 100 µM | M19-MEL > 100 µM | XF498 > 100 µM | DLD-1 > 100 µM | KM-20L2 > 100 µM | LXFL 529 > 100 µM

CCC12C=CCN(CCc3c([nH]c4ccccc34)/C=C\1)C2 (centres undefined)
inactive: DMS-114 > 100 µM | HOP-18 > 100 µM | RXF 631 > 100 µM | M19-MEL > 100 µM | XF498 > 100 µM | DLD-1 > 10 µM | KM-20L2 > 100 µM | LXFL 529 > 100 µM

C[N+](C)(C)C1CC([N+](C)(C)C)C2c3ccccc3C21 (centres undefined)
inactive: DMS-114 > 100 µM | RXF 631 > 100 µM | M19-MEL > 100 µM | SNB-78 > 100 µM | XF498 > 100 µM | DLD-1 > 100 µM | KM-20L2 > 100 µM | LXFL 529 > 100 µM
